Entries after “also recorded” stand apart in the source; their conditions may differ.
Legend:
[1] = tested on: WT mice transplanted with control BM cells; assay: In vivo treatment of WT mice transplanted with control BM cells (normal haematopoiesis); parameters: species or system mouse
Description: Age-matched, female wild-type C57BL/6J or Nes-gfp mice were used as recipients in bone marrow (BM) transplantation assays and for in vivo pharmacological treatments. Lethally irradiated (12 Gy) recipient mice were transplanted with 2×10^6 BM cells from Mx-Cre;JAK2V617F mice induced with plpC 8 weeks before, or from Cre-negative mice as disease-free controls. […] Vehicle (saline solution) daily injections were performed in the same way. Unless indicated, treatment was initiated 4 weeks posttransplant, when animals evidenced peripheral blood signs of MPN. Mice were randomly distributed prior to treatment initiation, and disease development was monitored over time in peripheral blood samples, using an automated blood counter. […] Mice were sacrificed at different time points and subjected to complete necropsy; BM and spleen were analysed by histology and flow cytometry; femora and skull were used for immunostainings, and haematopoietic and stromal cells were additionally used for functional assays ex vivo.
BM cell extraction, flow cytometry and fluorescence-activated cell sorting For haematopoietic cell recovery, bones were crushed in a mortar, filtered through a 40-μm mesh to obtain single cell suspensions, and depleted of red blood cells by lysis in 0.15 M NH4Cl for 10 min at 4° C. […] Biotinylated antibodies were detected with fluorochrome-conjugated streptavidin (BD Biosciences). […]

[2] = tested on: CD45+ haematopoietic cells from BM of Nes-gfp;Mx1-cre;JAK2-V617F mice and control littermates; assay: Colony-forming units in culture (CFU-C) with drug added in vitro; type: cell-based, mouse; conditions: scored after one week in culture
Description: Colony-forming units in culture (CFU-C) assay was performed. […] Colonies of more than 50 cells were scored after 7 days of incubation at 37° C., 5% CO2, 20% O2 in a water-jacketed incubator. For CFU-F assays, BM CD45− Ter119− cells were plated into 6-well dishes and cultured in maintenance medium (α-MEM, 15% FCS with antibiotics). After 10-12 days in culture, adherent cells were fixed with 100% methanol and stained with Giemsa stain (Sigma) to reveal fibroblastic clusters. Colonies with more than 50 cells were scored as CFU-F.

[3] = tested on: HSCs and MPN-initiating cells; assay: Competitive repopulation assays using limiting cell dilutions; type: in vivo
Description: For quantification of HSC, BM cells from treated mice were used for competitive repopulation assays using limiting cell dilutions. Briefly, CD45.1+ competitor BM cells […] were transplanted into lethally irradiated CD45.2+ recipient mice, after mix with […] and 4×10^3 donor BM cells. Peripheral blood chimerism was assessed by flow cytometry every 2-4 weeks. Mice were sacrificed 16 weeks after the transplant and the BM LSK cell chimerism was assessed by flow cytometry. A minimum of 5% CD45.2+ chimerism in the LSK cell compartment was considered as positive in recipients of control BM cells. In recipients of mutant BM, mice were considered as positive (“leukaemic”) above 50% CD45.2+ chimerism. The software LCalc (StemCell Technologies) was used for quantification of HSCs and MPN-initiating cells in control and mutant donor BM, respectively.

[4] = tested on: Nes-creERT2;iDTA mice depleted in nestin+ cells; assay: BRL37344 treatment of Nes-creERT2;iDTA mice depleted in nestin+ cells, transplanted with MPN BM cells; type: in vivo, mouse; conditions: BRL37344 for 6 weeks
Description: Age-matched, female wild-type C57BL/6J or Nes-gfp mice were used as recipients in bone marrow (BM) transplantation assays and for in vivo pharmacological treatments. […] Vehicle (saline solution) daily injections were performed in the same way. Unless indicated, treatment was initiated 4 weeks posttransplant, when animals evidenced peripheral blood signs of MPN. Mice were randomly distributed prior to treatment initiation, and disease development was monitored over time in peripheral blood samples, using an automated blood counter. […] The neuroprotective drug 4-methylcatechol (10 μg kg-1, i.p.) was injected once daily. The JAK inhibitor INCB018424 (S-Ruxilitinib, Abmole Bioscience) was administered by oral gavage (30 mg kg-1, twice per day separated 10-12 hours) in 0.5% hydroxypropylmethylcellulose (Sigma) after solubilisation in DMSO. The IL-1 receptor antagonist (Kineret, Sobi, Stockholm, Sweden) was administered by subcutaneous osmotic pumps (Alzet) infusing a continuous dosing of 40 mg kg-1 per day. Mice were sacrificed at different time points and subjected to complete necropsy; BM and spleen were analysed by histology and flow cytometry; femora and skull were used for immunostainings, and haematopoietic and stromal cells were additionally used for functional assays ex vivo.

[5] = molecular target: β2 receptors (Homo sapiens, UniProt P07550); conditions: read-out: Ki for β2 receptors; cited from earlier work
Sequence of β2 receptors (P07550 whole entry): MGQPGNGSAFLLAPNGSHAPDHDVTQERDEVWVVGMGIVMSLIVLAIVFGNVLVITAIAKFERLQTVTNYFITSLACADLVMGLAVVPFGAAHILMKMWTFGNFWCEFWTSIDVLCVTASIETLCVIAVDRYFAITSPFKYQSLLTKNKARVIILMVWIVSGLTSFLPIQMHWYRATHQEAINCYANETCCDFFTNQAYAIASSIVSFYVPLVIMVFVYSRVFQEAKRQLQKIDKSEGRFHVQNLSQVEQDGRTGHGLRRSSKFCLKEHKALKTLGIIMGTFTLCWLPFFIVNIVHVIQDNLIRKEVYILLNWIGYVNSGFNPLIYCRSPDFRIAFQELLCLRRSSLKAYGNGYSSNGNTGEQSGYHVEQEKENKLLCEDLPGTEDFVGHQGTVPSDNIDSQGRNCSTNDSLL

## C[C@H](Cc1ccc(OCC(=O)O)cc1)NC[C@H](O)c1cccc(Cl)c1 [BRL37344, [4-[(2R)-2-[[(2R)-2-(3-clorophenyl)-2-hydroxyethyl]amino]propyl]phenoxy]acetic acid]
[1]; BRL37344 2 mg kg-1 i.p. twice a day
  blood counts in wild-type mice: did not affect
[1]; long-term BRL37344 treatment, 16 weeks, 2 mg kg-1 twice a day i.p.
  normal HSCs / normal haematopoiesis: did not compromise; also recorded: does not compromise
[2]
  growth of cultured haematopoietic progenitors (CFU-C): neither 4-methylcatechol nor BRL37344 affected
[3]; BM cells from BRL37344-treated versus vehicle-treated MPN mice, 16 weeks after transplantation
  reduction in leukemic stem cells (MPN-initiating cell frequency): 4.5 fold
[3]; control mice treated with BRL37344 over 4 weeks, starting 11 weeks after the transplant, non-significant
  normal HSC BM number: does not change
[4]; Nes-creERT2;iDTA versus control mice
  therapeutic effect of BRL37344 after in vivo depletion of nestin+ cells (blood counts): reduces
[4]; started 2 weeks after transplantation combined with tamoxifen
  leukocytosis in mice depleted in nestin+ cells: not rescued
[5]
  Ki: 1120 nM

From patent publication US10335380B2, “Compounds suitable for the treatment of myeloproliferative neoplasms as well as methods for the diagnosis/prognosis of myeloproliferative neoplasms” (CNIC Fundacion Centro Nacional De investigaciones …, priority 2013, dated 2019)
